One data set has as its system blood platelets. To be noted: at low concentration; Japanese Patent Kokai No. 125,930/73; cited from earlier work.
The next data set has as its system thrombosis. To be noted: administered orally or intravenously to mammals including humans; Japanese Patent Kokai No. 125,930/73; cited from earlier work.
The nature of a further data set: Acute toxicity test. To be noted: mouse, in vivo; male mice, oral administration. Here is the method:
The test compounds were administered orally to the mice and LD50 (mg/kg) of the compounds was determined.

For data set [1], the system named is rabbit platelet (collagen-induced aggregation). Description: Platelet aggregation inhibitory effect, collagen-induced aggregation in rabbit platelet. The settings on record: Oryctolagus cuniculus, read-out: Inhibition effect on collagen-induced aggregation in rabbit platelet; for inhibition at 100 µM: concentration of the test compound solution 10^-4 mole; for inhibition at 10 µM: concentration of the test compound solution 10^-5 mole; for inhibition at 1 µM: concentration of the test compound solution 10^-6 mole. The format is cell-based. An excerpt:
(§1) The blood sample used for the test is a 1/9 (by volume) mixture of sodium citrate and whole blood collected from rabbit. Said sample is subjected to 10-minute centrifugal separation at 1,000 r.p.m. to obtain a platelet rich plasma (PRP). The thus obtained PRP is separated, and the remaining blood sample is further subjected to 15-minute centrifugal separation at 3,000 r.p.m. to obtain a platelet poor plasma (PPP).
(§2) The number of platelets in the PRP is counted by the Brecher-Clonkite Method, and the PRP is diluted with the PPP to prepare a PRP sample with platelet concentration of 300,000/mm^3 for the adenosine diphosphate (ADP)-induced aggregation test. There is also prepared a PRP sample with platelet concentration of 450,000/mm^3 for the collagen-induced aggregation test.
(§3) 0.6 Ml of said PRP sample is added into 0.01 ml of a solution of a test compound of a predetermined concentration and the mixture is placed in a 37° C. thermostat for one minute. Then 0.07 ml of an ADP or collagen solution is added to the mixture. Transmittance of this mixture is determined and the change of transmittance is recorded by using the aggregometer at stirrer speed of 1,100 r.p.m. […] ADP is adjusted to a concentration of 7.5×10^-5 M, and the collagen solution is prepared by triturating 100 mg of collagen with 5 ml of said buffer and the supernatant is used as collagen inducer. Adenosine and acetylsalicylic acid are used as controls for the ADP-induced aggregation test and the collagen-induced aggregation test, respectively. The platelet aggregation inhibitory effect is measured in terms of percent inhibition with respect to the aggregation rate of the controls. The aggregation rate is calculated from the following formula: [formula] wherein a: transmittance of PRP
(§4) b: transmittance of PRP containing a test compound and an aggregation inducer
(§5) The compounds tested are as follows.

Data set [2] has as its system rabbit platelet (ADP-induced aggregation). Description: Platelet aggregation inhibitory effect, ADP-induced aggregation in rabbit platelet. It counts as cell-based. To be noted: Oryctolagus cuniculus; for inhibition at 100 µM: concentration of the test compound solution 10^-4 mole; for inhibition at 100 µM / inhibition at 10 µM: read-out: Inhibition effect on ADP-induced aggregation in rabbit platelet; for inhibition at 10 µM: concentration of the test compound solution 10^-5 mole; for inhibition at 1 µM: concentration of the test compound solution 10^-6 mole.
Excerpt: as §1, §2, §3, §4, §5

Data set [3] concerns cerebral blood flow, bastard dog. Description: Increasing effect of cerebral blood flow in anesthetized dog. It counts as in vivo. The settings on record: Canis lupus familiaris, iv; for change in vivo at 0.3 mg/kg: dosage 300 μg/kg. Here is the method: (Test of increasing effect of cerebral blood flow)
Thus, a bastard dog (male, 12-20 kg of body weight) was fixed in a prone (position) and was anesthetized with […] of pentobarbital sodium and forced to breathe at a frequency of respiration of 20 times/minute. Then, the skull was bared and the surface bone was removed to expose the venous sinus by using a grinder and the venous blood was taken out from the venas which was cannulizated. The amount of venous blood flow was measured by using an electromagnetic blood flow meter and next measured by using drop-counter to measure the number of drops of blood per 10 seconds.
The increasing effect of cerebral blood flow was calculated by comparing the number of blood drops in 30 seconds at the peak of increasement shown before and after the administration of compound to be tested. Each of the compounds to be tested was dissolved in dimethylformamide and diluted with physiological saline solution and administered through a cannule being inserted into the profunda femoris vein.

[4] abbreviates: through profunda femoris vein, dog.

For the molecule `CC(C)(C)NCC(O)COc1cccc2c1CCC(=O)N2` (stereo not shown) [5-(2'-hydroxy-3-tert-butylamino)-propoxy-3,4-dihydrocarbostyril], in the data set on blood platelets, the “inhibition of the aggregation of blood platelets” value was “could specifically inhibit the aggregation of blood platelets”. For the same molecule, the “effectiveness for preventing and treating thrombosis” value with thrombosis is “very effective for preventing and treating thrombosis”.

As usually defined, the LD50 is the dose expected to kill half of the subjects tested. In general, inhibition refers to the change of the read-out against control, counted positive when it falls. For the molecule `C=CCn1c(=O)ccc2cc(OCCCc3nnnn3C3CCCCC3)ccc21` [Compound 13, 1-Allyl-6-[3-(1-cyclohexyltetrazol-5-yl)propoxy]carbostyril], in “Acute toxicity test”, the LD50 is > 1000 mg/kg. For the same molecule, in data set [1], the inhibition at 100 µM stood at 89.7%, the inhibition at 10 µM came out at 44.8% and the inhibition at 1 µM was 23.2%. In data set [2], the inhibition at 100 µM is 81.6% and the inhibition at 10 µM was 41.7%.

`O=c1ccc2cc(OCCCc3nnnn3Cc3ccccc3)ccc2[nH]1` [Compound 4, 6-[3-(1-Benzyltetrazol-5-yl)propoxy]carbostyril]: the LD50 in “Acute toxicity test” was > 1000 mg/kg. The molecule also registered a change in vivo at 0.3 mg/kg in data set [3] (setting [4]) of 65.8%. In addition, in data set [1], the inhibition at 100 µM was determined as 100%, the inhibition at 10 µM came to 72.5% and the inhibition at 1 µM was 10.8%. In data set [2], the inhibition at 100 µM is 100%, the inhibition at 10 µM turned out to be 45.5% and 1 µM produced 3.7% inhibition.

Take `CC(C)n1nnnc1CCCOc1ccc2[nH]c(=O)ccc2c1` [Compound 2, 6-[3-(1-Isopropyltetrazol-5-yl)propoxy]carbostyril]: the median lethal dose (LD50) in “Acute toxicity test” was > 1000 mg/kg. Further, in data set [1], the inhibition at 100 µM came to 100%, the inhibition at 10 µM amounted to 58.1% and the inhibition at 1 µM turned out to be 11.8%. Moreover, in data set [2], the inhibition at 100 µM is 74.7%, the inhibition at 10 µM turned out to be 36.8% and the inhibition at 1 µM came out at 11.9%.

On to `COc1ccc(Cc2nccc3cc(OC)c(OC)cc23)cc1OC` [Papaverine, papaverine, reference compound], for which, in data set [3] (read-out: Increasing effect of cerebral blood flow), the change in vivo at 1 mg/kg stood at 78.9%.

On to `Cc1cc(=O)[nH]c2ccc(OCCCc3nnnn3C3CCCCC3)cc12` [Compound 10, 4-Methyl-6-[3-(1-cyclohexyltetrazol-5-yl)propoxy]carbostyril], for which the LD50 in “Acute toxicity test” was > 1000 mg/kg. Moreover, in data set [1], the inhibition at 100 µM was 100%, the inhibition at 10 µM is 100% and the inhibition at 1 µM is 18.2%. In addition, in data set [2], the inhibition at 100 µM was found to be 100%, the inhibition at 10 µM worked out at 61.7% and the inhibition at 1 µM came out at 28.1%.

As to `Cn1c(=O)ccc2cc(OCCCc3nnnn3C3CCCCC3)ccc21` [Compound 8, 1-Methyl-6-[3-(1-cyclohexyltetrazol-5-yl)propoxy]carbostyril], the 50% lethal dose (LD50) in “Acute toxicity test” is > 1000 mg/kg. For the same molecule, in data set [1], the inhibition at 100 µM is 91.5%, the inhibition at 10 µM was found to be 43.4% and the inhibition at 1 µM was 18.6%. In data set [2], the inhibition at 100 µM came out at 87.8%, the inhibition at 10 µM amounted to 42.4% and at 1 µM the inhibition was 21.3%.

Take `O=C1CCc2cc(OCCCc3nnnn3C3CCCCC3)ccc2N1` [Compound 3, 6-[3-(1-Cyclohexyltetrazol-5-yl)propoxy]-3,4-dihydrocarbostyril]: in the data set “Acute toxicity test”, the median lethal dose (LD50) is > 1000 mg/kg. For the same molecule, the change in vivo at 0.03 mg/kg in data set [3] (dosage 30 μg/kg, through profunda femoris vein, dog) came to 69%. In data set [1], the inhibition at 100 µM is 100%, the inhibition at 10 µM came out at 53.5% and the inhibition at 1 µM was 10.3%. In addition, in data set [2], the inhibition at 100 µM came out at 76.7%, the inhibition at 10 µM came to 59.6% and 1 µM produced 9.6% inhibition.

On to `O=c1ccc2cc(OCCCc3nnnn3-c3ccccc3)ccc2[nH]1` [Compound 9, 6-[3-(1-Phenyltetrazol-5-yl)propoxy]carbostyril], for which the median lethal dose (LD50) in “Acute toxicity test” is > 1000 mg/kg. The molecule further came in with a change in vivo at 0.3 mg/kg in data set [3] (setting [4]) of 69.9%. In addition, in data set [1], the inhibition at 100 µM was found to be 100%, the inhibition at 10 µM was 100% and the inhibition at 1 µM turned out to be 32.8%. In data set [2], the inhibition at 100 µM amounted to 100%, the inhibition at 10 µM stood at 45.1% and the inhibition at 1 µM worked out at 26.8%.

For `O=c1ccc2cc(OCCCc3nnnn3C3CCCCC3)ccc2n1Cc1ccccc1` [Compound 12, 1-Benzyl-6-[3-(1-cyclohexyltetrazol-5-yl)propoxy]carbostyril], the LD50 in “Acute toxicity test” is > 1000 mg/kg. For the same molecule, in data set [1], the inhibition at 100 µM is 92.6%, the inhibition at 10 µM was found to be 41.5% and the inhibition at 1 µM is 21.8%. Moreover, in data set [2], the inhibition at 100 µM was determined as 76.8% and the inhibition at 10 µM is 35.2%.

Take `CCc1ccc(-n2nnnc2COc2ccc3c(c2)CCC(=O)N3)cc1` [Compound 15, 6-[1-(4-Ethylphenyl)tetrazol-5-yl-methoxy]3,4-dihydrocarbostyril]: in the data set “Acute toxicity test”, the LD50 was > 1000 mg/kg. In data set [1], the inhibition at 100 µM was found to be 100% and the inhibition at 10 µM amounted to 35.1%. In addition, in data set [2], the inhibition at 100 µM was 78.5% and the inhibition at 10 µM worked out at 38.9%.

`O=C1CCc2c(cccc2OCCCc2nnnn2C2CCCCC2)N1` [Compound 11, 5-[3-(1-Cyclohexyltetrazol-5-yl)propoxy]-3,4-dihydrocarbostyril]: the LD50 in the data set “Acute toxicity test” is > 1000 mg/kg. In data set [1], the inhibition at 100 µM was 98.4% and the inhibition at 10 µM came to 42.4%. In addition, in data set [2], the inhibition at 100 µM was determined as 90.4% and the inhibition at 10 µM was 30.2%.
